Data: PubChem BioAssay AID248 (DTP/NCI, 2004)
Values joined by “and” are separate entries in the source; they are usually repeats but may differ in a detail not shown here. Equal entries are not always repeated. Toxic doses and inconclusive results are not listed. No stated cut-off is given here; in the data, active means T/C of 150% or more; inactive means T/C below 125%. Square brackets hold non-standard residues; d marks the D form. Peptide text beside a SMILES is read from it. * marks the point of attachment. ξ: configuration not given here. Cbz = O=C(OCc1ccccc1)*; ξI = CCC(C)C(N)C(=O)O

System: L1210 leukemia ip in BDF1 mice, survival T/C
Assay: NCI In Vivo Anticancer Drug Screen. Data for tumor model L1210 Leukemia (intraperitoneal) in B6D2F1 (BDF1) mice
Details: endpoint: mean survival time, higher = longer survival
How it was run: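 Tumor was transplanted into mice, which were then dosed with test compound or vehicle alone. Survival was recorded for each group, and the treated figure was expressed relative to the control figure.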

[1] = dose: 100.0 mg/kg/injection, schedule: Q04DX003 (ip), vehicle: Klucel (hydroxypropylcellulose) (HPC)
[2] = dose: 200.0 mg/kg/injection, schedule: Q04DX003 (ip), vehicle: Klucel (hydroxypropylcellulose) (HPC)
[3] = dose: 400.0 mg/kg/injection, schedule: Q04DX003 (ip), vehicle: Klucel (hydroxypropylcellulose) (HPC)
[4] = dose: 100.0 mg/kg/injection, schedule: Q01DX009 (ip), vehicle: saline with Tween-80
[5] = dose: 100.0 mg/kg/injection, schedule: Q04DX003 (ip), vehicle: saline
[6] = dose: 200.0 mg/kg/injection, schedule: Q01DX009 (ip), vehicle: saline with Tween-80
[7] = dose: 200.0 mg/kg/injection, schedule: Q04DX003 (ip), vehicle: saline
[8] = dose: 400.0 mg/kg/injection, schedule: Q01DX009 (ip), vehicle: saline with Tween-80
[9] = dose: 75.0 mg/kg/injection, schedule: Q01DX001 (ip), vehicle: saline
[10] = dose: 150.0 mg/kg/injection, schedule: Q01DX001 (ip), vehicle: saline
[11] = dose: 300.0 mg/kg/injection, schedule: Q01DX001 (ip), vehicle: saline
[12] = dose: 100.0 mg/kg/injection, schedule: Q04DX003 (ip), vehicle: saline with Tween-80
[13] = dose: 200.0 mg/kg/injection, schedule: Q04DX003 (ip), vehicle: saline with Tween-80
[14] = dose: 400.0 mg/kg/injection, schedule: Q04DX003 (ip), vehicle: saline with Tween-80
[15] = dose: 100.0 mg/kg/injection, schedule: Q04DX002 (ip), vehicle: Klucel (hydroxypropylcellulose) (HPC)
[16] = dose: 200.0 mg/kg/injection, schedule: Q04DX002 (ip), vehicle: Klucel (hydroxypropylcellulose) (HPC)
[17] = dose: 400.0 mg/kg/injection, schedule: Q04DX002 (ip), vehicle: Klucel (hydroxypropylcellulose) (HPC)
[18] = dose: 200.0 mg/kg/injection, schedule: Q01DX001 (ip), vehicle: carboxymethylcellulose (CMC)
[19] = dose: 200.0 mg/kg/injection, schedule: Q01DX001 (ip), vehicle: saline
[20] = dose: 100.0 mg/kg/injection, schedule: Q01DX001 (ip), vehicle: saline
[21] = dose: 400.0 mg/kg/injection, schedule: Q01DX001 (ip), vehicle: saline

Measured: T/C

COc1cc(C=Nc2ccccc2C(=O)N/N=C/c2cc(OC)c(OC)c(OC)c2)cc(OC)c1OC
inactive: [1] 97 % of control | [2] 100 % of control | [3] 91 % of control

O=C(O)C1C2C3CC(C4CC43)C12 (stereo unspecified)
inactive: [4] 96 % of control | [5] 96 % of control | [6] 106 % of control | [7] 93 % of control | [8] 96 % of control | dose: 400.0 mg/kg/injection, schedule: Q04DX003 (ip), vehicle: saline 100 % of control

COc1ccc(NC(=O)Oc2ccc(-c3ccccc3)cc2Br)cc1
inactive: [1] 96 % of control | [2] 96 % of control | [3] 92 % of control

Cn1cnc(=O)c2ccccc21
inactive: [5] 88 % of control | [7] 100 % of control

Clc1ccc(/C=C/c2nc(Cl)c(-c3ccc(Cl)cc3)c(Cl)n2)cc1
inactive: [9] 105 % of control | [10] 92 % of control | dose: 150.0 mg/kg/injection, schedule: Q04DX003 (ip), vehicle: Klucel (hydroxypropylcellulose) (HPC) 113 % of control | [11] 97 % of control | dose: 300.0 mg/kg/injection, schedule: Q04DX003 (ip), vehicle: Klucel (hydroxypropylcellulose) (HPC) 92 % of control

CC1(C)CCCC2(C)C3CCC(C31)C2OC(=O)c1ccc([N+](=O)[O-])cc1 (stereo unspecified)
inactive: dose: 100.0 mg/kg/injection, schedule: Q01DX001 (ip), vehicle: Klucel (hydroxypropylcellulose) (HPC) 101 % of control | dose: 200.0 mg/kg/injection, schedule: Q01DX001 (ip), vehicle: Klucel (hydroxypropylcellulose) (HPC) 98 % of control | dose: 400.0 mg/kg/injection, schedule: Q01DX001 (ip), vehicle: Klucel (hydroxypropylcellulose) (HPC) 93 % of control

O=C1OC(=O)C2CC(Br)C(Br)CC12 (stereo unspecified)
inactive: [4] 92 % of control | [12] 94 % of control and 102 % of control | [6] 89 % of control | [13] 94 % of control | [8] 89 % of control | [14] 91 % of control and 93 % of control

CC1OC(OC2CCC3(C=O)C4CCC5(C)C(C6=CC(=O)OC6)CCC5(O)C4CCC3(O)C2)C(O)C(O)C1O (stereo unspecified)
inactive: dose: 3.0 mg/kg/injection, schedule: Q01DX001 (ip), vehicle: carboxymethylcellulose (CMC) 96 % of control | dose: 6.0 mg/kg/injection, schedule: Q01DX001 (ip), vehicle: carboxymethylcellulose (CMC) 98 % of control

COC(=O)N1C(c2ccccc2)(c2ccccc2)CS1(=O)=O
inactive: [15] 112 % of control | [16] 104 % of control | [17] 93 % of control

OC(c1ccccc1)(c1ccc(-c2ccccc2)cc1)c1cccc2ccccc12 (stereo unspecified)
inactive: [9] 92 % of control | [10] 92 % of control | [11] 91 % of control

NC(N)=Nc1ccc(/C=C2\C=Cc3ccccc32)cc1
inactive: [18] 101 % of control

c1ccc(C2=C(c3ccccc3)C(c3ccccc3)=C(c3ccccc3)CC2)cc1
inactive: dose: 100.0 mg/kg/injection, schedule: Q01DX001 (ip), vehicle: saline with Tween-80 89 % of control | dose: 200.0 mg/kg/injection, schedule: Q01DX001 (ip), vehicle: saline with Tween-80 89 % of control | dose: 400.0 mg/kg/injection, schedule: Q01DX001 (ip), vehicle: saline with Tween-80 86 % of control

CN(C)C(=S)OCC(C)(C)C
inactive: [12] 113 % of control | [13] 100 % of control | [14] 97 % of control

CCC(C)C(NC(=O)CNC(=O)OCc1ccccc1)C(N)=O (stereo not drawn) (Cbz-Gly-[ξI]-NH2)
inactive: [12] 103 % of control | [13] 97 % of control | [14] 95 % of control

CCC1CCCC1=O (stereo unspecified)
inactive: dose: 50.0 mg/kg/injection, schedule: Q01DX001 (ip), vehicle: saline 95 % of control | [19] 90 % of control

CCCCCc1c(C(F)(F)F)[nH]c(=O)[nH]c1=O
inactive: [1] 90 % of control | [2] 101 % of control | [3] 111 % of control

CC(=O)N1CC=C2c3c1ccc(C)c3C(=O)C2C(N)=O (stereo unspecified)
inactive: [20] 97 % of control | [19] 94 % of control | [21] 94 % of control

Cc1cc(C)c2c(c1)C(=O)C(=O)c1cc(C)cc(C)c1-2
inactive: dose: 50.0 mg/kg/injection, schedule: Q04DX002 (ip), vehicle: Klucel (hydroxypropylcellulose) (HPC) 95 % of control | [15] 94 % of control and 92 % of control | [16] 98 % of control | [17] 116 % of control and 88 % of control

NCC(N)C(=O)O (stereo unspecified)
inactive: [20] 94 % of control | [19] 97 % of control | [21] 94 % of control

COc1cccc(OC)c1OC(=O)Nc1cccc(SC)c1
inactive: [6] 91 % of control | [8] 95 % of control

O=C1C=CC(=O)N1c1cccc(N2C(=O)C=CC2=O)c1
inactive: dose: 8.0 mg/kg/injection, schedule: Q04DX003 (ip), vehicle: saline 102 % of control | dose: 16.0 mg/kg/injection, schedule: Q04DX003 (ip), vehicle: saline 95 % of control

CCCCc1ccc(Nc2cc(=O)[nH]c(=O)[nH]2)cc1
inactive: dose: 25.0 mg/kg/injection, schedule: Q01DX001 (ip), vehicle: gum acacia 87 % of control | dose: 50.0 mg/kg/injection, schedule: Q01DX001 (ip), vehicle: gum acacia 87 % of control | dose: 200.0 mg/kg/injection, schedule: Q01DX001 (ip), vehicle: gum acacia 88 % of control | dose: 400.0 mg/kg/injection, schedule: Q01DX001 (ip), vehicle: gum acacia 88 % of control

Cc1cc(-n2c(C)ccc2C)no1
inactive: [12] 100 % of control | [13] 90 % of control | [14] 101 % of control

Cc1cc2c(cc1C)[n+]([O-])c1c(=O)[nH]c(=O)nc-1n2CC(O)C(O)C(O)CO (stereo unspecified)
inactive: dose: 100.0 mg/kg/injection, schedule: Q04DX002 (ip), vehicle: saline with Tween-80 98 % of control | dose: 200.0 mg/kg/injection, schedule: Q04DX002 (ip), vehicle: saline with Tween-80 95 % of control

CCN(CC)CCn1ccnc1C
inactive: dose: 50.0 mg/kg/injection, schedule: Q01DX005 (ip), vehicle: saline 109 % of control | dose: 100.0 mg/kg/injection, schedule: Q01DX005 (ip), vehicle: saline 104 % of control | dose: 200.0 mg/kg/injection, schedule: Q01DX005 (ip), vehicle: saline 104 % of control

O=[N+]([O-])c1ccc(/C=C\c2ccncc2)cc1
inactive: dose: 100.0 mg/kg/injection, schedule: Q01DX001 (ip), vehicle: carboxymethylcellulose (CMC) 101 % of control | dose: 100.0 mg/kg/injection, schedule: Q01DX009 (ip), vehicle: carboxymethylcellulose (CMC) 100 % of control | dose: 100.0 mg/kg/injection, schedule: Q04DX002 (ip), vehicle: carboxymethylcellulose (CMC) 103 % of control and 108 % of control | dose: 100.0 mg/kg/injection, schedule: Q04DX003 (ip), vehicle: carboxymethylcellulose (CMC) 100 % of control | [18] 105 % of control | dose: 200.0 mg/kg/injection, schedule: Q01DX009 (ip), vehicle: carboxymethylcellulose (CMC) 98 % of control | dose: 200.0 mg/kg/injection, schedule: Q04DX002 (ip), vehicle: carboxymethylcellulose (CMC) 100 % of control | dose: 200.0 mg/kg/injection, schedule: Q04DX003 (ip), vehicle: carboxymethylcellulose (CMC) 115 % of control | dose: 400.0 mg/kg/injection, schedule: Q01DX001 (ip), vehicle: carboxymethylcellulose (CMC) 95 % of control | dose: 400.0 mg/kg/injection, schedule: Q04DX002 (ip), vehicle: carboxymethylcellulose (CMC) 100 % of control | dose: 400.0 mg/kg/injection, schedule: Q04DX003 (ip), vehicle: carboxymethylcellulose (CMC) 104 % of control

CC(=O)NC(C)C#N (stereo unspecified)
inactive: [12] 103 % of control | [13] 95 % of control | [14] 95 % of control
